# Experimental data published in patent publication US6589991B1, “Therapeutic methods employing disulfide derivatives of dithiocarbamates and compositions useful therefor” (Medinox, Inc., priority 1998, dated 2003).
# “Also recorded” adds a separate entry of the source.
# Key:
# diabetic-prone BB rats = system: diabetic-prone BB rats
# Protocol: FIG. 4 is a graph illustrating the effects of oral administration of L-proline dithiocarbamate on the survival of diabetic-prone BB rats. The percentage of survival was plotted against the age of the animals over 125 days. The treated group (n=30) (▪) received 5 mg/ml monomeric L-proline dithiocarbamate in drinking water, while the untreated group (n=31) (□) received only water.
# We tested the effectiveness of the oral administration of (L-PD) for the treatment of diabetic-prone BB rats, an animal model that is widely used for type I insulin-dependent diabetes. Type I diabetes is an autoimmune disease. the pathogenesis of this disease remains unclear although there is ample evidence for increased NO production at early stages of the disease (see, for example, G. M. Piper, Hypertension, 31: 1047-1060, 1998).
# Male, diabetic-prone BB rats (n=61, 250-280 g) were used for the study. The rats were distributed between untreated and L-PD treated groups. The treated group received 5 mg/ml L-PD in drinking water. The treatment started when the animals were 2 months old and continued until they were 4 months old. […] Percent survival was calculated by Product-Limit Survival Analysis Generalized Savage (Mantel-Cox) with p<0.01.
# Lewis rats = conditions: 10 mg/ml in drinking water; scored 0-6 from day 6; n=9
# Protocol: The test rats (▪) were given L-PD in drinking water (10 mg/ml). Control rats ([formula]) received only distilled water for drinking. Beginning on day 6, the left foot of the animals was scored for the development of arthritic disease using the following system: 0=no redness or inflammation, 1=one area of redness or inflammation on the foot less than 2 mm in diameter, 3=partial redness/inflammation of the footpad, 4=all of footpad red or inflamed, 5=criteria of 4 plus at least one toe red or inflamed, and 6=criteria of 4 plus toes inflamed and deformed (toes curling under footpad).
# After the subcutaneous injection in the right footpad of a suspension in mineral oil of heat killed M. tuberculosis on day 1, the Lewis rats were separated into two groups (n=9); one given L-PD (10 mg/ml) in the drinking water and the other given only distilled water. Beginning on day 6, the left foot of the animals was scored for the development of arthritic disease using the following system: 0=no redness or inflammation, 1=one area of redness or inflammation on the foot less than 2 mm in diameter, 3=partial redness/inflammation of the footpad, 4=all of footpad red or inflamed, 5=criteria of 4 plus at least one toe red or inflame, d, and 6=criteria of 4 plus toes inflamed and deformed (toes curling under footpad).
# [1] = Conversion of the dithiocarbamate disulfide to the monomer by L-cysteine (UV spectrum); format: physicochemical; conditions: L-cysteine 5 mg/mL in 60 mM HEPES pH 7.4; disulfide 20 μg/mL; UV 190-340 nm
# Protocol: FIG. 2 is an illustration of the UV spectrum of N-methyl-D-glucamine dithiocarbamate disulfide (MGDD) (20 μg/mL)in the presence of L-cysteine (5 mg/mL). The spectrum was recorded with a scan range of 190 nm to 340 nm.
# FIG. 10 is an illustration of the UV spectrum measured on Hewlett Packard 8451A Diode Array Spectrophotometer. Scanning wavelength 190 nm-340 nm. One mL freshly prepared solution of L-cysteine (5 mg/mL) in 60 mM HEPES buffer, pH=7.4 is transferred into the UV cell (cell length 1 cm) plus 1 μl acetone and the absorbance of this solution is measured as a background. Added 1 μl stock solution of Pyrrolidine dithiocarbamate disulfide (PDD) in acetone to the cuvette—final concentration of PDD is 20 μg/mL. After mixing the UV spectrum is measured immediately.
# A freshly prepared solution of L-cysteine (5 mg/mL) in 60 mM HEPES buffer, pH 7.4 was transferred into a UV cell (cell length 1cm) plus 1 μl acetone and the absorbance of this solution was recorded as background. Immediately after the addition of Pyrrolidine dithiocarbamate disulfide (PDD) (final concentration of 20 μg/mL), the spectrum was recorded with a scan range of 190 nm to 340 nm.
# [2] = format: physicochemical; conditions: KCN in water; UV spectrum recorded immediately after mixing
# [3] = Stability at pH 1 / stomach acid; format: physicochemical
# [4] = cited from earlier work
structure (smiles),measurement,setting,value
"NC(=S)S.O=C(O)[C@@H]1CCCN1 [L-PD, L-proline dithiocarbamate]",animals surviving at the end of the experiments,"diabetic-prone BB rats; 5 mg/ml in drinking water for 2 months (age 2 to 4 months), untreated 10 percent, p<0.01",more than 30%
same,improvement in survival compared to the untreated group,"diabetic-prone BB rats; 5 mg/ml in drinking water, n=30, over 125 days",statistically significant
same,effect on water consumption,"diabetic-prone BB rats; chronic treatment, 5 mg/ml in drinking water",no apparent effect
same,severity score of the inflammation in the left footpad,Lewis rats,significantly reduced
"CN(C[C@H](O)[C@@H](O)[C@H](O)[C@H](O)CO)C(=S)SSC(=S)N(C)C[C@H](O)[C@@H](O)[C@H](O)[C@H](O)CO [MGDD, N-methyl-D-glucamine dithiocarbamate disulfide]",conversion to the monomeric dithiocarbamate on addition of L-cysteine,[1],"readily be converted into its starting material, MGD; also recorded: identical to that of N-methyl-D-glucamine dithiocarbamate"
same,reaction with potassium cyanide,[2],fast reaction
"S=C(SSC(=S)N1CCCC1)N1CCCC1 [PDD, Pyrrolidine dithiocarbamate disulfide]",time stable at pH 1,[3],≤ 24 hours
same,conversion to the monomeric dithiocarbamate on addition of L-cysteine,[1],"readily be converted into its starting material, pyrrolidine dithiocarbamate"
same,reaction with potassium cyanide,[2],fast reaction
S=C(S)N1CCCC1 [Pyrrolidine dithiocarbamate],stability in the presence of stomach acid,[4],breaks down to ineffective species
